Source: ChEMBL document CHEMBL1201862, “PubChem BioAssay data set” (2004)
Calls of active or inactive are those of the source.

Columns and labels:
[1] = biological target: Serine/threonine-protein kinase MRCK alpha (Homo sapiens, UniProt Q5VT25); format: functional
[2] = biological target: Cyclin-dependent kinase 1 (Homo sapiens, UniProt P06493); format: functional;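 further: Kinome-wide panel profiling, with the target listed as panel member CDC2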
[3] = biological target: Cyclin-dependent kinase 2 (Homo sapiens, UniProt P24941); format: functional;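 further: CDK2 measured as one member of a broad kinome profiling panel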
[4] = biological target: Calcium/calmodulin-dependent protein kinase type II subunit gamma (Homo sapiens, UniProt Q13555); format: functional
[5] = biological target: Interleukin-1 receptor-associated kinase 1 (Homo sapiens, UniProt P51617); format: functional;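 further: IRAK1 tested as one member of a kinome panel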
[6] = biological target: Casein kinase I isoform gamma-1 (Homo sapiens, UniProt Q9HCP0); format: functional;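 further: measured as the CSNK1G1 member of a kinome profiling panel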
[7] = biological target: Serine/threonine-protein kinase DCLK1 (Homo sapiens, UniProt O15075); format: functional;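 further: affinity for DCLK1 (listed as DCAMKL1) measured as one member of a kinome-wide kinase profiling panel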
[8] = biological target: Serine/threonine-protein kinase PLK1 (Homo sapiens, UniProt P53350); format: functional;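 further: PLK1 measured as one member of a kinome-wide profiling panel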
[9] = biological target: Serine/threonine-protein kinase PAK 1 (Homo sapiens, UniProt Q13153); format: functional
[10] = biological target: Serine/threonine-protein kinase 3 (Homo sapiens, UniProt Q13188); format: functional;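 further: measured as one member of a kinome-wide kinase panel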
[11] = biological target: Tyrosine-protein kinase receptor UFO (Homo sapiens, UniProt P30530); format: functional
[12] = biological target: Testis-specific serine/threonine-protein kinase 1 (Homo sapiens, UniProt Q9BXA7); format: functional
[13] = biological target: Receptor tyrosine-protein kinase erbB-2 (Homo sapiens, UniProt P04626); assay: Navigating the Kinome. Panel member name: ERBB2; format: functional
[14] = biological target: SRSF protein kinase 1 (Homo sapiens, UniProt Q96SB4); format: functional;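 further: measured as one member of a kinome-wide kinase profiling panel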
[15] = biological target: Fibroblast growth factor receptor 3 (Homo sapiens, UniProt P22607); format: functional
[16] = biological target: Insulin receptor (Homo sapiens, UniProt P06213); format: functional;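 further: insulin receptor kinase tested as one member of a kinome-wide kinase panel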
[17] = biological target: Eukaryotic elongation factor 2 kinase (Homo sapiens, UniProt O00418); format: functional
[18] = biological target: Tyrosine-protein kinase SYK (Homo sapiens, UniProt P43405); format: functional
[19] = biological target: Serine/threonine-protein kinase PLK3 (Homo sapiens, UniProt Q9H4B4); format: functional
[20] = biological target: Tyrosine-protein kinase FRK (Homo sapiens, UniProt P42685); format: functional;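 further: FRK tested as one member of a kinome panel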
[21] = biological target: Serine/threonine-protein kinase pim-3 (Homo sapiens, UniProt Q86V86); format: functional;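 further: value obtained as one member of a broad kinase panel profiling effort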
[22] = biological target: Protein-tyrosine kinase 6 (Homo sapiens, UniProt Q13882); format: functional
[23] = biological target: Dual specificity protein kinase CLK4 (Homo sapiens, UniProt Q9HAZ1); format: functional
[24] = biological target: Dual specificity mitogen-activated protein kinase kinase 2 (Homo sapiens, UniProt P36507); assay: Navigating the Kinome. Panel member name: MAP2K2; format: functional
[25] = biological target: Leucine-rich repeat serine/threonine-protein kinase 2 (Homo sapiens, UniProt Q5S007); format: functional;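 further: value from a broad kinome-wide panel profiling study in which LRRK2 was one of the kinases tested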
[26] = biological target: Dual specificity protein kinase CLK2 (Homo sapiens, UniProt P49760); format: functional
[27] = biological target: Platelet-derived growth factor receptor alpha (Homo sapiens, UniProt P16234); assay: Navigating the Kinome. Panel member name: PDGFRA; format: functional
[28] = biological target: cAMP-dependent protein kinase catalytic subunit alpha (Homo sapiens, UniProt P17612); format: functional
[29] = biological target: Serine/threonine-protein kinase TBK1 (Homo sapiens, UniProt Q9UHD2); assay: Navigating the Kinome. Panel member name: TBK1; format: functional
[30] = biological target: Proto-oncogene tyrosine-protein kinase receptor Ret (Homo sapiens, UniProt P07949); format: functional;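 further: measured within a kinome-wide profiling panel, RET as the panel member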
[31] = biological target: Leukocyte tyrosine kinase receptor (Homo sapiens, UniProt P29376); assay: Navigating the Kinome. Panel member name: LTK; format: functional
[32] = biological target: Mitogen-activated protein kinase 14 (Homo sapiens, UniProt Q16539); format: functional;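 further: part of a kinome-wide panel, MAPK14 entry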
[33] = biological target: G protein-coupled receptor kinase 5 (Homo sapiens, UniProt P34947); assay: Navigating the Kinome. Panel member name: GPRK5; format: functional
[34] = biological target: T1, Mannose-6-phosphate isomerase (Homo sapiens, UniProt P34949); assay: inhibitors of human PMI, primary screen, biochemical, fluorescence intensity, coupled assay (AID 1209)
T1 sequence (P34949 whole entry): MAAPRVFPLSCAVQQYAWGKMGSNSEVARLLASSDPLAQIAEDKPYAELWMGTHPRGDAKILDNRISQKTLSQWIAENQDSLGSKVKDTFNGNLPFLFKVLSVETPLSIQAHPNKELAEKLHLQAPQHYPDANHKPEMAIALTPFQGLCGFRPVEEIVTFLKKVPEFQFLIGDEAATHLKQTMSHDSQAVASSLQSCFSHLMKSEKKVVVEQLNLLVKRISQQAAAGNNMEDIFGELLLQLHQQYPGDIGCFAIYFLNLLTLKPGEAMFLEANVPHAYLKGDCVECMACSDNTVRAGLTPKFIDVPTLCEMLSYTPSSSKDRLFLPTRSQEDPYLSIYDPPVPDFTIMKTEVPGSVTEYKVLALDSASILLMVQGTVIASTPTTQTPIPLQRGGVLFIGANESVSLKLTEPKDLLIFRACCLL

[35] = biological target: T2, Dual specificity protein phosphatase 6 (Rattus norvegicus, UniProt Q64346); assay: MKP-3 phosphatase inhibitors, primary screen, biochemical, rat enzyme, in vitro (AID 425)
T2 sequence (Q64346 whole entry): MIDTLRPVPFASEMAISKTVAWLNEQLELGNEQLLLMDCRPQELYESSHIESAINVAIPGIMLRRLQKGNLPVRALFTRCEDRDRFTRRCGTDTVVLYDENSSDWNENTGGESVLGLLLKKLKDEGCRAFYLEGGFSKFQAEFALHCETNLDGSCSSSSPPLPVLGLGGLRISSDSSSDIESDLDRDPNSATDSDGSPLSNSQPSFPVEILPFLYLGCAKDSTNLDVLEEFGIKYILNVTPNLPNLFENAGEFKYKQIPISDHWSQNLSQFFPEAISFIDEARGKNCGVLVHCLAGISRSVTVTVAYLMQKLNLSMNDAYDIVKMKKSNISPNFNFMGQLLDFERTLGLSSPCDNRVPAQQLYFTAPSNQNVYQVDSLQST

Tyrosine-protein kinase FRK, sequence (P42685 whole entry): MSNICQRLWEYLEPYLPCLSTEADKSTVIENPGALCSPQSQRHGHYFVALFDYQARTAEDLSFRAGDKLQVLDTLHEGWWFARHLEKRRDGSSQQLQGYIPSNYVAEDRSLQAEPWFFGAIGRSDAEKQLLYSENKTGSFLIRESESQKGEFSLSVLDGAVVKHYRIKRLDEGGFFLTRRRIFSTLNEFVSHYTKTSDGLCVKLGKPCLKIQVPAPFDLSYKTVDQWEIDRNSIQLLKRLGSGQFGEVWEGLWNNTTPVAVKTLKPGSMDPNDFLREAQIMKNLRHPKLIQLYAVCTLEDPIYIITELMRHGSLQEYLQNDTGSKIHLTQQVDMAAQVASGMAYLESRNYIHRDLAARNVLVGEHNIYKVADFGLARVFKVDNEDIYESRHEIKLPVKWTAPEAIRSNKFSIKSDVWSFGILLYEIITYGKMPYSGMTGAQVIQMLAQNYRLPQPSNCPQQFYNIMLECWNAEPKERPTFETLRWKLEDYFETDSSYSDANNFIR
Serine/threonine-protein kinase DCLK1, sequence (O15075 whole entry): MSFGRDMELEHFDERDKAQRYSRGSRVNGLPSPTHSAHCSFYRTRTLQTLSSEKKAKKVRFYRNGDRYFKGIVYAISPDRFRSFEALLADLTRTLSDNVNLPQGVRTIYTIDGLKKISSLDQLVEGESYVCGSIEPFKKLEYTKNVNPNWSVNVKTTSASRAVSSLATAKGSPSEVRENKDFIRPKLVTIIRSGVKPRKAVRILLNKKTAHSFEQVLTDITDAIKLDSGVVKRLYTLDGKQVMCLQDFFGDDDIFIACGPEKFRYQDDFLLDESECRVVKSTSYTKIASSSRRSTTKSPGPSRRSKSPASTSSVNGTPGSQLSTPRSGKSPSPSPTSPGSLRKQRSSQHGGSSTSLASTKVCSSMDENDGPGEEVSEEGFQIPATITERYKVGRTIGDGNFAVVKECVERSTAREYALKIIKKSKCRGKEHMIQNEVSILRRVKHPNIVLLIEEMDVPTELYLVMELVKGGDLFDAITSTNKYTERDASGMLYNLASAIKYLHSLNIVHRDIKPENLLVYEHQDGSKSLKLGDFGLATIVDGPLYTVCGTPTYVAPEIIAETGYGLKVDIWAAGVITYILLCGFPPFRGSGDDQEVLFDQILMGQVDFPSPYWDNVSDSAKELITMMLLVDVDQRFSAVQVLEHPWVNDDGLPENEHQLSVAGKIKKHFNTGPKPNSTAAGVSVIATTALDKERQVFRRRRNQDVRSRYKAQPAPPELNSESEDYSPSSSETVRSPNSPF
Cyclin-dependent kinase 1, sequence (P06493 whole entry): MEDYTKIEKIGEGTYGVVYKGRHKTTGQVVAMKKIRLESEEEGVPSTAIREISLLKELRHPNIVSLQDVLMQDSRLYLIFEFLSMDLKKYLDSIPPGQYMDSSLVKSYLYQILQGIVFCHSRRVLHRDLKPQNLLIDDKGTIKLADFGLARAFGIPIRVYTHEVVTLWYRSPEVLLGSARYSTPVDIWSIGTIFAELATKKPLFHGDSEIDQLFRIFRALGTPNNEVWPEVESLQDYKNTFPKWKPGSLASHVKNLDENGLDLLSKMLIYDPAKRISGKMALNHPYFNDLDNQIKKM
Calcium/calmodulin-dependent protein kinase type II subunit gamma, sequence (Q13555 whole entry): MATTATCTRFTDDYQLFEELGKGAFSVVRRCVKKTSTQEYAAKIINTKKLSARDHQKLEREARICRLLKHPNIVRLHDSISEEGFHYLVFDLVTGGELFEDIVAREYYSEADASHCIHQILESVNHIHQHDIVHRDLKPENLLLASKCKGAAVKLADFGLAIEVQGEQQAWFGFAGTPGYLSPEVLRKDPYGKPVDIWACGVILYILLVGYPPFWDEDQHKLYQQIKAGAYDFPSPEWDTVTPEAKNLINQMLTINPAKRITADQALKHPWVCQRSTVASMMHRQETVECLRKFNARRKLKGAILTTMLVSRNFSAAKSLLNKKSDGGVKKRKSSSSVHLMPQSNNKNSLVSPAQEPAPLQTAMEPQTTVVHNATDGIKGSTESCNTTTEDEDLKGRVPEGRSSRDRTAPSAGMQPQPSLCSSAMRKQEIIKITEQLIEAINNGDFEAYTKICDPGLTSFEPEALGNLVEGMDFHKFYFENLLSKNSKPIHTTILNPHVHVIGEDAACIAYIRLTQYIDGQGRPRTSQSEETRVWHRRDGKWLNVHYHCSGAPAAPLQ
Insulin receptor, sequence (P06213 28-758 limits assumed): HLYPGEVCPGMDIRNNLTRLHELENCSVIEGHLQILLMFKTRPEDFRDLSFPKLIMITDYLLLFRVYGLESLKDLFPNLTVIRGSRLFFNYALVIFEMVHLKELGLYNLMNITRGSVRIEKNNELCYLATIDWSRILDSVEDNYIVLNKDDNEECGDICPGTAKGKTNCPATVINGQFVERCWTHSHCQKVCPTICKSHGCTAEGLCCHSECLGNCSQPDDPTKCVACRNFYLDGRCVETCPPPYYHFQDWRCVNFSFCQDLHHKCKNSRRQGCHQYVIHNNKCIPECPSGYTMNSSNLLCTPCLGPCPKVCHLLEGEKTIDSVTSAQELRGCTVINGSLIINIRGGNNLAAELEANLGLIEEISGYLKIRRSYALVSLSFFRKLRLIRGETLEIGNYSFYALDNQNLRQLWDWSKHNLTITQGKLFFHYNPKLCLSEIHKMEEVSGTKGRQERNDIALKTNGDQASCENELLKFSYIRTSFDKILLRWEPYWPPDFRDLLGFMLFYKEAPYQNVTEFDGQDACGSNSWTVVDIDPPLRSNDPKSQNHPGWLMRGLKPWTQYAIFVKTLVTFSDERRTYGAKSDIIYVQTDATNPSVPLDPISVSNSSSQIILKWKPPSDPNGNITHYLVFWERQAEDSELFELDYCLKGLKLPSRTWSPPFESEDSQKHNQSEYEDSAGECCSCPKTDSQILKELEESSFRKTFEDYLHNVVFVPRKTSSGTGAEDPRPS
Insulin receptor, sequence (P06213 763-1382 limits assumed): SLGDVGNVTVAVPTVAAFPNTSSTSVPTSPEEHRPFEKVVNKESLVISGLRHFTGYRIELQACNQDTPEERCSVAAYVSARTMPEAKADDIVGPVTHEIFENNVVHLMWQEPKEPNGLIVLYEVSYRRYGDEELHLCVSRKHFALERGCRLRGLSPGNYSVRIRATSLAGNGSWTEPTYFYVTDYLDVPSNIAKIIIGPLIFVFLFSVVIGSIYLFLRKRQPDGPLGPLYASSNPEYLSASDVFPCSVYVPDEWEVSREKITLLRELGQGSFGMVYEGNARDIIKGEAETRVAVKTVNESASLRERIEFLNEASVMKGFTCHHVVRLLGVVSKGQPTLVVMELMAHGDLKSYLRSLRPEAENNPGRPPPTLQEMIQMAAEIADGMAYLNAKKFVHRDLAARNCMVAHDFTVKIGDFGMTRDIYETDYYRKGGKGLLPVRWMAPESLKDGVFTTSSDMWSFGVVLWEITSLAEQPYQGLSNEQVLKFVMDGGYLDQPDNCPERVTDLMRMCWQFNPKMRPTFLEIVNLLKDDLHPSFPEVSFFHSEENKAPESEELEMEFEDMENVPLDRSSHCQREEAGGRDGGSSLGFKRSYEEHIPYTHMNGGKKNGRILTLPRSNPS
Protein-tyrosine kinase 6, sequence (Q13882 whole entry): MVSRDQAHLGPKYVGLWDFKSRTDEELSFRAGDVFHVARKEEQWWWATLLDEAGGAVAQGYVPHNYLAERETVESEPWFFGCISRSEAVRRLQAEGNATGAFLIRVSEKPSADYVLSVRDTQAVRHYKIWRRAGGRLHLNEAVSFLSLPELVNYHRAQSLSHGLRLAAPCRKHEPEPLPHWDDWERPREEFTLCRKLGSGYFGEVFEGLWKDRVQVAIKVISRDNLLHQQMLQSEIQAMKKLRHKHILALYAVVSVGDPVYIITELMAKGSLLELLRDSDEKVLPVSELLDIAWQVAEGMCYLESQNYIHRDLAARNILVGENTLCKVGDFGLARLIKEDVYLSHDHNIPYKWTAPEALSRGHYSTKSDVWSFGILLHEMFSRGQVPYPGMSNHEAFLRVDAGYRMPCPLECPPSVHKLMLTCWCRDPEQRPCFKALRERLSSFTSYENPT
Casein kinase I isoform gamma-1, sequence (Q9HCP0 whole entry, canonical isoform): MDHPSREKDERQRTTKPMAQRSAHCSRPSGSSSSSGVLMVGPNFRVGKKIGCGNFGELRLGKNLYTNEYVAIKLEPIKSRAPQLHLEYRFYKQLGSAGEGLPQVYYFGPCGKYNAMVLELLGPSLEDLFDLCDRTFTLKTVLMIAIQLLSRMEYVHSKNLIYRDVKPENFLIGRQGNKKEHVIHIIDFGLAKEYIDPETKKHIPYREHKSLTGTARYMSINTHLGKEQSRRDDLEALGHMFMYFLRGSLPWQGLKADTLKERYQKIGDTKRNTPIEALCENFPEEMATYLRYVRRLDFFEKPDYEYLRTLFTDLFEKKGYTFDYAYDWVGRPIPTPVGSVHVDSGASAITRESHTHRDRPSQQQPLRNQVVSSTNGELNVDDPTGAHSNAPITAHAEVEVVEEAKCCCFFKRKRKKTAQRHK

Cc1n[nH]c2ccc(-c3cncc(OCC(N)Cc4ccc(Cl)c(Cl)c4)c3)cc12 (stereo not given)
Ki [1]: 0.00794 µM (active)
Ki [2]: 0.0501 µM (active)
Ki [3]: 0.0251 µM (active)
Ki [4]: 0.0158 µM (active)
Ki [5]: 0.501 µM (active)
Ki [6]: 0.126 µM (active)
Ki [7]: 2 µM (active)
Ki [8]: > 7.94 µM (inactive)
Ki [9]: 0.794 µM (active)
Ki [10]: 0.0631 µM (active)
Ki [11]: 0.2 µM (active)
Ki [12]: 0.1 µM (active)
Ki [13]: > 1.58 µM (inactive)
Ki [14]: > 5.01 µM (inactive)
Ki [15]: > 2 µM (inactive)
Ki [16]: 2.51 µM (active)
Ki [17]: 3.16 µM (active)
Ki [18]: > 1.58 µM (inactive)
Ki [19]: > 7.94 µM (inactive)
Ki [20]: > 2.51 µM (inactive)
Ki [21]: 0.0158 µM (active)
Ki [22]: > 2.51 µM (inactive)

[2H]C([2H])([2H])Oc1cccc(C(C)NC(=O)c2sc(-c3ccncc3)nc2C)c1 (stereo not given)
Ki [23]: > 2.51 µM (inactive)
Ki [24]: > 3.98 µM (inactive)
Ki [25]: > 2.51 µM (inactive)
Ki [26]: > 3.98 µM (inactive)
Ki [27]: > 2.51 µM (inactive)
Ki [28]: > 1.26 µM (inactive)
Ki [29]: > 3.16 µM (inactive)
Ki [30]: > 3.16 µM (inactive)
Ki [31]: > 2.51 µM (inactive)
Ki [32]: > 3.98 µM (inactive)
Ki [33]: 3.16 µM (active)

COc1ccc(-n2c(NC(=O)c3ccco3)c(C#N)c3nc4ccccc4nc32)cc1
IC50 [34]: > 50 µM (not active)
IC50 [35]: > 100 µM (not active)
